Results reported in ChEMBL document CHEMBL1134155, “Synthesis and HIV-1 integrase inhibitory activities of catechol and bis-catechol derivatives” (Bioorg Med Chem Lett, 2001).

Assays:
CCRF-CEM = assay: Tested for antiviral activity against Human Immunodeficiency virus (HIV-1) replication in CEM cells.; type: functional, cell-based
[1] = molecular target: Human immunodeficiency virus type 1 integrase (Human immunodeficiency virus 1, UniProt Q7ZJM1); assay: Inhibition of human immunodeficiency virus - 1 (HIV-1) integrase
[2] = Cytotoxicity in a cell viability MTT assay; type: functional; conditions: read-out: TC50 (the source's name)

Chain of Human immunodeficiency virus type 1 integrase (Q7ZJM1 whole entry): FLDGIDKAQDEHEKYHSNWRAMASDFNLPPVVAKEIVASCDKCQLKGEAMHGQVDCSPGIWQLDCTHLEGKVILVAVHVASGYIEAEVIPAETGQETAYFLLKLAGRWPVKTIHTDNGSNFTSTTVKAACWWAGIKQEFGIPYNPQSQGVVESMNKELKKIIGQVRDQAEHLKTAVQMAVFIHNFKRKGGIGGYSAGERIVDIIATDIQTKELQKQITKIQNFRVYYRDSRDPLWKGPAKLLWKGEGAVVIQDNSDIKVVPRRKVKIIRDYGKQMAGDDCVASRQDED

| SMILES | IC50 (CCRF-CEM) [µM] | IC50 [1] [µM] | CC50 [2] [µM] |
| --- | --- | --- | --- |
| Cc1cc2cc(O)c(O)cc2c(C)c1-c1ccccc1C(F)(F)F | 10.3 | 22 | 13.6 |
| Cc1ccc(-c2c(C)cc3cc(O)c(O)cc3c2C)cc1 | – | 84 | – |
| Cc1cc2ccccc2c(C)c1-c1ccc(O)c(O)c1 | – | 500 | – |
| Oc1cc2c(cc1O)C1Cc3cc(O)c(O)cc3C(C2)O1 | 98 | 1.3 | > 100 |
| Cc1cc2cc(O)c(O)cc2c(C)c1-c1cccc(C(F)(F)F)c1 | 5.7 | 13 | 72.6 |
| Cc1cc2c(F)cccc2c(C)c1-c1ccc(O)c(O)c1 | – | 500 | – |
| Cc1cc2ccc(F)cc2c(C)c1-c1ccc(O)c(O)c1 | – | 500 | – |
| Cc1cc2cc(O)c(O)cc2c(C)c1-c1ccc(F)cc1 | – | 138 | – |
| Cc1cc2cc(O)c(O)cc2c(C)c1-c1ccc(C(F)(F)F)cc1 | 10.5 | 21 | 19 |
| Oc1ccc(-c2ccc3cc(O)c(O)cc3c2)cc1O | 9.9 | 2.1 | 51 |
| Cc1cc2cc(O)c(O)cc2c(C)c1-c1ccccc1F | – | 500 | – |
| Cc1cc2cc(O)c(O)cc2c(C)c1-c1ccccc1 | – | 76 | – |
| Cc1ccc2cc(C)c(-c3ccc(O)c(O)c3)c(C)c2c1 | – | 157 | – |
| Cc1cc2cc(O)c(O)cc2c(C)c1-c1ccc(O)c(O)c1 | 8.7 | 23 | 33 |
